Test results taken from patent US11149011B2, “Compounds and methods for IDO and TDO modulation, and indications therefor” (Plexxikon Inc., priority 2018, dated 2021).

Key:
IDO1 = target: T1, IDO1 (Homo sapiens, UniProt P14902); test: IDO enzymatic assay; format: biochemical; settings: geometric mean; read-out: IDO1 GMean: IC50 (μM) (Biochemical Assay)
T1 construct: His tag (N); made in house; host or cells: E. coli
Procedure, shortened: (§1)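 Kynurenine formed after TCA hydrolysis (30 min, 50 °C) was quantified relative to full-reaction and no-enzyme controls, and IC50s were fitted. TDO reactions used 1 nM enzyme with 350 μM Trp and 0.4 μM methylene blue for 70 min; IDO reactions used 6 nM enzyme, 10 μM Trp, 5 μM methylene blue for 20 min; both at pH 6.5, room temperature.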

[1] = target: T2, TDO-expressing HEK293 cell clones (Homo sapiens, UniProt P48775); test: Cell based kynurenine assay, TDO-expressing HEK293 cell clones; settings: HEK293 cells, 24 hours of incubation, geometric mean; read-out: HEK293 TDO Kynurenine GMean IC50 (μM) (Cellular Assay)
T2 construct: expressed in transfected cells; host or cells: HEK293
T2 sequence (P48775 whole entry): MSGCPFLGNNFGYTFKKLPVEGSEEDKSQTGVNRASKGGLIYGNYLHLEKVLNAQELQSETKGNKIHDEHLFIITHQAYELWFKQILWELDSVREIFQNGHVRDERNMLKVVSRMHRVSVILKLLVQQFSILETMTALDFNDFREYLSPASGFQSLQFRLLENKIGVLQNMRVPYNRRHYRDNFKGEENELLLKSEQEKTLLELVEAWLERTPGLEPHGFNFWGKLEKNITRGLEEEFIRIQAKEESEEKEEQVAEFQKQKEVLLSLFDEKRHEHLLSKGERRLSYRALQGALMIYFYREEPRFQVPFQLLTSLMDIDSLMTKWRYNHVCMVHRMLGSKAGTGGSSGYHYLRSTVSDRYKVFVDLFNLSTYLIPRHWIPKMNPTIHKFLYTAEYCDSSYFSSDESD
Procedure, shortened: (§2)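 IC50s come from nonlinear regression of % inhibition of kynurenine in culture supernatant after 24 hours of compound exposure. Controls were 0.2% DMSO-treated cells and media alone. Cells were stable human IDO1- or TDO-expressing HEK293 clones (CMV promoter), plated at 2.5×10^4 per well.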

TDO = target: T3, TDO (Homo sapiens, UniProt P48775); test: TDO enzymatic assay; settings: geometric mean; read-out: TDO GMean: IC50 (μM) (Biochemical Assay)
T3 construct: His tag (N); made in house; host or cells: E. coli
T3 sequence (P48775 whole entry): as above
Procedure, shortened: as §1

[2] = target: T4, IDO1-expressing HEK293 cell clones (Homo sapiens, UniProt P14902); test: Cell based kynurenine assay, IDO1-expressing HEK293 cell clones; settings: HEK293 cells, 24 hours of incubation, geometric mean; read-out: HEK293 IDO1 Kynurenine GMean IC50 (μM) (Cellular Assay)
T4 construct: expressed in transfected cells; host or cells: HEK293
T4 sequence (P14902 whole entry): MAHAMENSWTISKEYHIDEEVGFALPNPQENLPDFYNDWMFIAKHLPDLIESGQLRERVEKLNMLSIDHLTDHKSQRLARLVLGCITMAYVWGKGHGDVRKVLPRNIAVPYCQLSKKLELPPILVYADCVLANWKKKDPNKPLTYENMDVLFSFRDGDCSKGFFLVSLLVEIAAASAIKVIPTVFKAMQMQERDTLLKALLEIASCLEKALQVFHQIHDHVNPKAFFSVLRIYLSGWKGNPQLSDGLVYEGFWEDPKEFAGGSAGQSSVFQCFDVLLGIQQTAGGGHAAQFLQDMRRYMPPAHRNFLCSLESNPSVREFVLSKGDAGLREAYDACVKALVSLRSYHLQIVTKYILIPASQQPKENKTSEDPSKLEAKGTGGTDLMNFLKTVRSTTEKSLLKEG
Procedure, shortened: as §2

T1 sequence (P14902 whole entry): as above

IC50 (IDO1) [µM]	IC50 [1] [µM]	IC50 (TDO) [µM]	IC50 [2] [µM]	SMILES
0.0001 to 10	0.0001 to 10	0.0001 to 10	0.0001 to 10	C[C@H](N)C(=O)N1CCC(C(C)(C)[C@H](O)c2cc(Cl)cc3cn[nH]c23)CC1 [Compound P-0127, (S)-2-amino-1-(4-((S)-1-(5-chloro-1H-indazol-7-yl)-1-hydroxy-2-methylpropan-2-yl)piperidin-1-yl)propan-1-one]
0.0001 to 10	0.0001 to 10	0.0001 to 10	0.0001 to 10	CNCC(=O)N1CCC(C(C)(C)[C@H](O)c2cc(Cl)cc3cn[nH]c23)CC1 [Compound P-0128, (S)-1-(4-(1-(5-chloro-1H-indazol-7-yl)-1-hydroxy-2-methylpropan-2-yl)piperidin-1-yl)-2-(methylamino)ethan-1-one]
0.0001 to 10	0.0001 to 10	0.0001 to 10	0.0001 to 10	CN(O)C(=O)N1CCC(C(C)(C)[C@H](O)c2cc(Cl)cc3cn[nH]c23)CC1 [Compound P-0129, (S)-4-(1-(5-chloro-1H-indazol-7-yl)-1-hydroxy-2-methylpropan-2-yl)-N-hydroxy-N-methylpiperidine-1-carboxamide]
0.0001 to 10	0.0001 to 10	0.0001 to 10	0.0001 to 10	CON(C)C(=O)N1CCC(C(C)(C)[C@H](O)c2cc(Cl)cc3cn[nH]c23)CC1 [Compound P-0130, (S)-4-(1-(5-chloro-1H-indazol-7-yl)-1-hydroxy-2-methylpropan-2-yl)-N-methoxy-N-methylpiperidine-1-carboxamide]
0.0001 to 10	0.0001 to 10	0.0001 to 10	0.0001 to 10	C[C@@H](O)C(=O)N1CCC(C(C)(C)[C@H](O)c2cc(Cl)cc3cn[nH]c23)CC1 [Compound P-0131, (R)-1-(4-((S)-1-(5-chloro-1H-indazol-7-yl)-1-hydroxy-2-methylpropan-2-yl)piperidin-1-yl)-2-hydroxypropan-1-one]
0.0001 to 10	0.0001 to 10	0.0001 to 10	0.0001 to 10	CC(C)(O)C(=O)N1CCC(C(C)(C)[C@H](O)c2cc(Cl)cc3cn[nH]c23)CC1 [Compound P-0132, (S)-1-(4-(1-(5-chloro-1H-indazol-7-yl)-1-hydroxy-2-methylpropan-2-yl)piperidin-1-yl)-2-hydroxy-2-methylpropan-1-one]
0.0001 to 10	0.0001 to 10	0.0001 to 10	0.0001 to 10	CC(C)(C1CCN(C(=O)C2(O)CC2)CC1)[C@H](O)c1cc(Cl)cc2cn[nH]c12 [Compound P-0133, (S)-(4-(1-(5-chloro-1H-indazol-7-yl)-1-hydroxy-2-methylpropan-2-yl)piperidin-1-yl)(1-hydroxycyclopropyl)methanone]
0.0001 to 10	0.0001 to 10	0.0001 to 10	0.0001 to 10	CC(C)(C1CCN(C(=O)CCO)CC1)[C@H](O)c1cc(Cl)cc2cn[nH]c12 [Compound P-0134, (S)-1-(4-(1-(5-chloro-1H-indazol-7-yl)-1-hydroxy-2-methylpropan-2-yl)piperidin-1-yl)-3-hydroxypropan-1-one]
0.0001 to 10	0.0001 to 10	0.0001 to 10	0.0001 to 10	CS(=O)(=O)N1CCC2(CC1)CC(O)(c1c(F)c(Cl)cc3cn[nH]c13)C2 [Compound P-0136, 2-(5-chloro-6-fluoro-1H-indazol-7-yl)-7-(methylsulfonyl)-7-azaspiro[3.5]nonan-2-ol]
0.0001 to 10	0.0001 to 10	0.0001 to 10	> 10	CC(C)(C)OC(=O)N1CCC(C(C)(C)[C@H](O)c2cc(Cl)cc3[nH]ncc23)CC1 [Compound P-0142, tert-butyl (S)-4-(1-(6-chloro-1H-indazol-4-yl)-1-hydroxy-2-methylpropan-2-yl)piperidine-1-carboxylate]
0.0001 to 10	0.0001 to 10	0.0001 to 10	0.0001 to 10	[2H]C([2H])([2H])C(C1CCN(C(=O)CO)CC1)(C(O)c1cc(Cl)cc2cn[nH]c12)C([2H])([2H])[2H] (centres unmarked) [Compound P-0143, 1-(4-(2-((5-chloro-1H-indazol-7-yl)(hydroxy)methyl)propan-2-yl-1,1,1,3,3,3-d6)piperidin-1-yl)-2-hydroxyethan-1-one]
0.0001 to 10	0.0001 to 10	0.0001 to 10	> 10	CC(C)(C)OC(=O)N1CCC(C(C)(C)[C@@H](O)c2cc(Cl)cc3[nH]ncc23)CC1 [Compound P-0144, tert-butyl (R)-4-(1-(6-chloro-1H-indazol-4-yl)-1-hydroxy-2-methylpropan-2-yl)piperidine-1-carboxylate]
0.0001 to 10	0.0001 to 10	0.0001 to 10	> 10	CC(C)(C1CCN(C(=O)CO)CC1)[C@H](O)c1cc(Cl)cc2[nH]ncc12 [Compound P-0145, (S)-1-(4-(1-(6-chloro-1H-indazol-4-yl)-1-hydroxy-2-methylpropan-2-yl)piperidin-1-yl)-2-hydroxyethan-1-one]
0.0001 to 10	0.0001 to 10	0.0001 to 10	> 10	CC(C)(C1CCN(C(=O)CO)CC1)[C@@H](O)c1cc(Cl)cc2[nH]ncc12 [Compound P-0146, (R)-1-(4-(1-(6-chloro-1H-indazol-4-yl)-1-hydroxy-2-methylpropan-2-yl)piperidin-1-yl)-2-hydroxyethan-1-one]
0.0001 to 10	0.0001 to 10	0.0001 to 10	> 10	CCS(=O)(=O)N1CCC(C(C)(C)[C@H](O)c2cc(Cl)cc3[nH]ncc23)CC1 [Compound P-0147, (S)-1-(6-chloro-1H-indazol-4-yl)-2-(1-(ethylsulfonyl)piperidin-4-yl)-2-methylpropan-1-ol]
0.0001 to 10	0.0001 to 10	0.0001 to 10	> 10	CCS(=O)(=O)N1CCC(C(C)(C)[C@@H](O)c2cc(Cl)cc3[nH]ncc23)CC1 [Compound P-0148, (R)-1-(6-chloro-1H-indazol-4-yl)-2-(1-(ethylsulfonyl)piperidin-4-yl)-2-methylpropan-1-ol]
0.0001 to 10	0.0001 to 10	0.0001 to 10	0.0001 to 10	CC(C)(C1CCN(C(=O)NOCC2CC2)CC1)[C@H](O)c1cc(Cl)cc2cn[nH]c12 [Compound P-0600, (S)-4-(1-(5-chloro-1H-indazol-7-yl)-1-hydroxy-2-methylpropan-2-yl)-N-(cyclopropylmethoxy)piperidine-1-carboxamide]
